pIC50: −log10 of the molar value.

Sequence of Recombinant human KIF18A (1-467His-tagged) protein (Q8NI77 1-467): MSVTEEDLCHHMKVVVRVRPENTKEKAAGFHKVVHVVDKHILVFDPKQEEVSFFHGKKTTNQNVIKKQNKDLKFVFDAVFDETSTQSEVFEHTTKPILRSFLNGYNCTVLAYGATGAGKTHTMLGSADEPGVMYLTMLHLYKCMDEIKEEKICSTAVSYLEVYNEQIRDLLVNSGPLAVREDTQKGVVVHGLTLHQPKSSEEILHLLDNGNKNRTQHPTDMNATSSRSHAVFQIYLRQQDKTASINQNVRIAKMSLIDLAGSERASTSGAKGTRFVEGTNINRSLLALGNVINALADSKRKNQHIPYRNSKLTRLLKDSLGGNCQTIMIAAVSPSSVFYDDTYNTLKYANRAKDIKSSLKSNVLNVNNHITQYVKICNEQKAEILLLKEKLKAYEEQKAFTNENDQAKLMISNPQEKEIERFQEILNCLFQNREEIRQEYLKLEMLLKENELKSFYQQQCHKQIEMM
Sequence of Recombinant human KIF18A (1-467His-tagged) protein (P02550 whole entry partner): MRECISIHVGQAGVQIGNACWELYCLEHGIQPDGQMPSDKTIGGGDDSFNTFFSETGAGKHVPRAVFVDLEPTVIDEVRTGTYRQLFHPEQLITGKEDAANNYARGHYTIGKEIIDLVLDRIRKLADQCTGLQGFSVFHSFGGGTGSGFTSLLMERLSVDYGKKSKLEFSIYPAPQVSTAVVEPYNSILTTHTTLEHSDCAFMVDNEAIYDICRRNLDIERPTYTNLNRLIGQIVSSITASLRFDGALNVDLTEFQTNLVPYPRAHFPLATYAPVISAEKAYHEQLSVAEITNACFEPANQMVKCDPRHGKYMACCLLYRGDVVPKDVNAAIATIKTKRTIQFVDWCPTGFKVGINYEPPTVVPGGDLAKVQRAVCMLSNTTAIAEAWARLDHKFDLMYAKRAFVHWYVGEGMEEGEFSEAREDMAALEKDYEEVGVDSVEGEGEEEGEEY
Sequence of Recombinant human KIF18A (1-467His-tagged) protein (P02554 whole entry partner): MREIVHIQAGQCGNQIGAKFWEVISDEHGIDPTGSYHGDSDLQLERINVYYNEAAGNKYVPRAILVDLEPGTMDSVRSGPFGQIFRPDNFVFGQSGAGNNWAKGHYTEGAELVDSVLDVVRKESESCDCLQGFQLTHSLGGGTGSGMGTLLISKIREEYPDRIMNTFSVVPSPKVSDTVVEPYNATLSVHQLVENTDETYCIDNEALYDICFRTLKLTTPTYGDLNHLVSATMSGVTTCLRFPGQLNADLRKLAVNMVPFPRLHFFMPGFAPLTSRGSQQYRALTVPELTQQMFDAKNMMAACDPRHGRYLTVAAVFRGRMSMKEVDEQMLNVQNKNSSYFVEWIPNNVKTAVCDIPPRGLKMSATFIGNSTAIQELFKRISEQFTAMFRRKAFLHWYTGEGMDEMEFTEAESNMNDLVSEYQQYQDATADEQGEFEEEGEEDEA

The test has as its target Recombinant human KIF18A (1-467His-tagged) protein (Homo sapiens (Human), UniProt Q8NI77). Kind of test: KIF18A enzyme assay (microtubule-stimulated ATPase activity, ADP-Glo). It is filed as biochemical. The note with it: 30 nM KIF18A, ATP 75 μM, read-out: inhibitory activity against KIF18A IC50. As to the method:
Biological Example 1. Assay for In Vitro Inhibition of Enzymatic Activity of KIF18A by Compounds of the Present Invention
KIF18A enzyme assay: The enzymatic activity of KIF18A after treatment with the compounds was measured by an assay of microtubule-stimulated ATPase activity. ADP generated from the ATPase reaction was measured in this assay. The compounds were serially diluted 2-fold in DMSO over a range of 22 concentration points. Recombinant human KIF18A (1-467His-tagged) protein was expressed using a baculovirus system. Concentrations of KIF18A protein, microtubules, and ATP in the reaction were optimized for a standardized homogenous enzyme assay using an ADP-Glo kinase/ATPase assay kit. A reaction buffer [(15 mM Tris, pH 7.5), 10 mM MgCl2, 0.01% PluronicF-68, 1 μM paclitaxel, and 30 μg/mL pig microtubules] was prepared. The compounds and KIF18A protein (30 nM) were added to the prepared reaction buffer, and the reaction mixture was incubated at room temperature for 15 min, followed by addition of ATP (Km, 75 μM). The resulting reaction mixture was incubated at room temperature for another 15 min. 5 μL of ADP-Glo reagent and 2.5 μL of the reaction mixture were mixed and the resulting mixture was incubated at room temperature for 40 min. 10 μL of ADP-Glo detection reagent was added and the mixture was incubated at room temperature for 40 min. Luminescence was measured using a microplate reader and compared with that of the DMSO group, and then the inhibition percentages and IC50 values of the compounds were calculated.
As for `C[C@@H]1CN(c2nc(NC(=O)c3ccc(S(=O)(=O)N[C@@H](C)CO)cc3N3CCC4(CC3)CC4)cc3c2OCC3)CCO1` [Compound 95], the pIC50 was at least 7.00.

Take `O=C(Nc1cc(N2CCC(F)(F)CC2)c2ncoc2c1)c1ccc(NS(=O)(=O)CCO)cc1N1CCC2(CC1)CC2` [Compound 517]: the pIC50 was at least 7.00.

`C[C@H](CO)NS(=O)(=O)c1ccc(C(=O)Nc2cc(N3CCO[C@H](C)C3)c3c(ccn3C)c2)c(N2CCC3(CC2)CC3)c1` [Compound 416]: the pIC50 is at least 7.00.

For `Cn1ccc2cc(C(=O)Nc3ccc(S(=O)(=O)NCCO)cc3N3CCC4(CC3)CC4)nc(OCCC(F)(F)F)c21` [Compound 501], the pIC50 was at least 7.00.

For the compound `C[C@H](CO)NS(=O)(=O)c1ccc(NC(=O)c2cc3c(c(N4CCO[C@H](C)C4)n2)N(C)CC3)c(N2CCC3(CC2)CC3)c1` [Compound 384], the pIC50 is at least 7.00.

As for `CN1CCc2cc(NC(=O)c3ccc(NS(=O)(=O)CCO)cc3N3CCC4(CC3)CC4)nc(OC3CCC3)c21` [Compound 327], the pIC50 is at least 7.00.

Take `CN1CCc2cc(NC(=O)c3ccc(S(=O)(=O)NCCO)cc3N3CCC4(CC3)CC4)nc(N3CCC4(CC4)C3)c21` [Compound 342]: the pIC50 was at least 7.00.

Consider `Cn1ccc2cc(C(=O)Nc3ccc(S(=O)(=O)NCCO)cc3N3CCC4(CC3)CC4)nc(N3CCC(F)(F)CC3)c21` [Compound 497], for which the pIC50 was at least 7.00.

Turning to `CN1CCc2cc(C(=O)Nc3ccc(NS(=O)(=O)CCO)cc3C3CCC4(CC3)CC4)nc(N3CCC4(CC4)C3)c21` [Compound 358], the negative-log IC50 (pIC50) was at least 7.00.

For `O=C(Nc1cc(N2CCC(F)(F)CC2)c2[nH]ccc2c1)c1ccc(NS(=O)(=O)CCO)cc1N1CCC2(CC1)CC2` [Compound 521], the pIC50 is at least 7.00.

`C[C@@H]1CN(c2cc(C(=O)Nc3ccc(NS(=O)(=O)[C@@H](C)CO)cc3N3CCC4(CC3)CC4)cc3c2N(C)CC3)CCO1` [Compound 303]: the pIC50 is at least 7.00.

As for `C[C@H]1CN(c2nc(C(=O)Nc3ccc(NS(=O)(=O)CCO)cc3N3CCC4(CC3)CC4)cc3ccn(C)c23)CCO1` [Compound 483], the pIC50 is at least 7.00.

Consider `Cn1ccc2cc(C(=O)Nc3ccc(S(=O)(=O)NCCO)cc3N3CCC4(CC3)CC4)cc(OCCC(F)(F)F)c21` [Compound 437], for which the negative logarithm of the IC50 (pIC50) is at least 7.00.

On to `O=C(Nc1cc2c(c(N3CCC(F)(F)CC3)c1)OCCC2)c1ccc(S(=O)(=O)NCCO)cc1N1CCC2(CC1)CC2` [Compound 546], for which the pIC50 is at least 7.00.

Consider `C[C@H]1CN(c2nc(NC(=O)c3ccc(NS(=O)(=O)CCO)cc3N3CCC4(CC3)CC4)cc3ccoc23)CCO1` [Compound 195], for which the pIC50 is at least 7.00.

Consider `O=C(Nc1cc(N2CC3CC3C2)c2occc2c1)c1ccc(NS(=O)(=O)CCO)cc1N1CCC2(CC1)CC2` (centres unmarked) [Compound 138], for which the pIC50 was at least 7.00.

Take `C[C@H]1CN(c2cc(NC(=O)c3ccc(NS(=O)(=O)CCO)cc3N3CCC4(CC3)CC4)cc3ccoc23)CCO1` [Compound 131]: the pIC50 is at least 7.00.

For the compound `O=C(Nc1cc2ccoc2c(OC2CCC2)n1)c1ccc(S(=O)(=O)NCCO)cc1N1CCC2(CC1)CC2` [Compound 215], the pIC50 is at least 7.00.

With `O=C(Nc1cc2c(c(N3CCOCC3)n1)OCC2)c1ccc(S(=O)(=O)NCCO)cc1N1CCC2(CC1)CC2` [Compound 92], the pIC50 was at least 7.00.

In the case of `C[C@H]1CN(c2cc(C(=O)Nc3ccc(S(=O)(=O)NCCO)cc3N3CCC4(CC3)CC4)cc3ccn(C)c23)CCO1` [Compound 435], the pIC50 is at least 7.00.

With `C[C@@H]1CN(c2nc(NC(=O)c3ccc(NS(=O)(=O)CCO)cc3N3CCC4(CC3)CC4)cc3c2N(C)CC3)CCO1` [Compound 322], the pIC50 was at least 7.00.

For the compound `C[C@H](CO)NS(=O)(=O)c1ccc(C(=O)Nc2cc3ccn(C)c3c(N3CCO[C@H](C)C3)n2)c(N2CCC3(CC2)CC3)c1` [Compound 480], the pIC50 is at least 7.00.

In the case of `O=C(Nc1ccc(S(=O)(=O)NCCO)cc1N1CCC2(CC1)CC2)c1cc2c(c(N3CCC(F)(F)CC3)c1)OCCC2` [Compound 547], the pIC50 was at least 7.00.

With `C[C@H]1CN(c2nc(NC(=O)c3ccc(S(=O)(=O)NCCO)cc3N3CCC4(CC3)CC4)cc3ccn(C)c23)CCO1` [Compound 467], the pIC50 is at least 7.00.

In the case of `O=C(Nc1ccc(NS(=O)(=O)CCO)cc1N1CCC2(CC1)CC2)c1cc2c(c(OC3CCC3)c1)OCC2` [Compound 39], the pIC50 is at least 7.00.

Take `C[C@@H]1CN(c2cc(C(=O)Nc3ccc(NS(=O)(=O)[C@@H](C)CO)cc3N3CCC4(CC3)CC4)cc3c2OCC3)CCO1` [Compound 47]: the pIC50 was at least 7.00.

Turning to `C[C@@H]1CN(c2nc(NC(=O)c3ccc(S(=O)(=O)N[C@@H](C)CO)cc3N3CCC4(CC3)CC4)cc3ccn(C)c23)CCO1` [Compound 479], the pIC50 is at least 7.00.

As to `O=C(Nc1cc2c(c(N3CCC(F)(F)CC3)c1)NCCC2)c1ccc(NS(=O)(=O)CCO)cc1N1CCC2(CC1)CC2` [Compound 541], the pIC50 is at least 7.00.

As to `O=C(Nc1ccc(S(=O)(=O)NCCO)cc1N1CCC2(CC1)CC2)c1cc2c(c(OCCC(F)(F)F)c1)OCC2` [Compound 53], the pIC50 was at least 7.00.

Regarding `CN1CCc2cc(NC(=O)c3ccc(NS(=O)(=O)CCO)cc3N3CCC4(CC3)CC4)nc(N3CCC(C)(F)C3)c21` (centres unmarked) [Compound 328], the pIC50 is at least 7.00.

Turning to `O=C(Nc1cc(N2CCC(F)(F)CC2)c2ccccc2c1)c1ccc(NS(=O)(=O)CCO)cc1N1CCC2(CC1)CC2` [Compound 529], the pIC50 was 6.30 to 7.00.

In the case of `C[C@@H]1CN(c2nc(NC(=O)c3ccc(NS(=O)(=O)[C@H](C)CO)cc3N3CCC4(CC3)CC4)cc3c2OCC3)CCO1` [Compound 80], the pIC50 was at least 7.00.

Consider `Cn1ccc2cc(NC(=O)c3ccc(S(=O)(=O)NCCO)cc3N3CCC4(CC3)CC4)cc(N3CCOCC3)c21` [Compound 412], for which the pIC50 was at least 7.00.

Consider `Cn1ccc2cc(C(=O)Nc3ccc(NS(=O)(=O)CCO)cc3N3CCC4(CC3)CC4)cc(N3CCC(F)CC3)c21` [Compound 425], for which the pIC50 is at least 7.00.

Turning to `C[C@@H]1CN(c2nc(C(=O)Nc3ccc(S(=O)(=O)NCCO)cc3N3CCC4(CC3)CC4)cc3ccn(C)c23)CCO1` [Compound 498], the pIC50 is at least 7.00.

With `Cn1ccc2cc(NC(=O)c3ccc(NS(=O)(=O)CCO)cc3N3CCC4(CC3)CC4)cc(N3CC(F)(F)C3)c21` [Compound 388], the pIC50 is at least 7.00.

With `CN1CCc2cc(NC(=O)c3ccc(S(=O)(=O)NCCO)cc3N3CCC4(CC3)CC4)nc(N3CC(F)(F)C3)c21` [Compound 340], the pIC50 is at least 7.00.

For the compound `O=C(Nc1ccc(S(=O)(=O)NCCO)cc1N1CCC2(CC1)CC2)c1cc2c(c(N3CCC(F)CC3)c1)OCC2` [Compound 57], the pIC50 was at least 7.00.

Regarding `O=C(Nc1ccc(S(=O)(=O)NCCO)cc1N1CCC2(CC1)CC2)c1cc(N2CCOCC2)c2occc2c1` [Compound 188], the pIC50 was at least 7.00.

As for `CN1CCc2cc(C(=O)Nc3ccc(NS(=O)(=O)CCO)cc3N3CCC4(CC3)CC4)nc(OCCC(F)(F)F)c21` [Compound 357], the pIC50 was at least 7.00.

In the case of `C[C@@H](CO)S(=O)(=O)Nc1ccc(NC(=O)c2cc3c(c(N4CCC(F)(F)CC4)n2)OCC3)c(N2CCC3(CC2)CC3)c1` [Compound 109], the negative-log IC50 (pIC50) is at least 7.00.

Consider `C[C@H](CO)S(=O)(=O)Nc1ccc(NC(=O)c2cc(N3CCC(F)(F)CC3)c3c(ccn3C)c2)c(N2CCC3(CC2)CC3)c1` [Compound 430], for which the pIC50 was at least 7.00.

Regarding `O=C(Nc1ccc(NS(=O)(=O)CCO)cc1N1CCC2(CC1)CC2)c1cc2c(c(OCCC(F)(F)F)c1)OCC2` [Compound 37], the pIC50 is at least 7.00.

On to `CN1CCc2cc(NC(=O)c3ccc(NS(=O)(=O)CCO)cc3N3CCC4(CC3)CC4)nc(NC(C)(C)CO)c21` [Compound 331], for which the pIC50 was at least 7.00.

As to `O=C(Nc1ccc(S(=O)(=O)NCCO)cc1N1CCC2(CC1)CC2)c1cc2c(c(OC3CCC3)c1)OCC2` [Compound 55], the pIC50 is at least 7.00.

For the compound `C[C@@H]1CN(c2nc(NC(=O)c3ccc(NS(=O)(=O)[C@@H](C)CO)cc3N3CCC4(CC3)CC4)cc3ccn(C)c23)CCO1` [Compound 463], the pIC50 was at least 7.00.

With `C[C@@H](CO)S(=O)(=O)Nc1ccc(NC(=O)c2cc(N3CCC(F)(F)CC3)c3occc3c2)c(N2CCC3(CC2)CC3)c1` [Compound 173], the pIC50 is at least 7.00.

For the compound `CN1CCc2cc(NC(=O)c3ccc(S(=O)(=O)NCCO)cc3N3CCC4(CC3)CC4)cc(N3CCC4(CC4)C3)c21` [Compound 278], the pIC50 was at least 7.00.

`C[C@H](CO)NS(=O)(=O)c1ccc(NC(=O)c2cc3ccn(C)c3c(N3CCO[C@H](C)C3)n2)c(N2CCC3(CC2)CC3)c1` [Compound 512]: the pIC50 is at least 7.00.

Take `Cn1ccc2cc(NC(=O)c3ccc(NS(=O)(=O)CCO)cc3N3CCC4(CC3)CC4)nc(N3CC(F)(F)C3)c21` [Compound 452]: the pIC50 is at least 7.00.

Regarding `Cn1ccc2cc(NC(=O)c3ccc(NS(=O)(=O)CCO)cc3N3CCC4(CC3)CC4)nc(N3CCC4(CC4)C3)c21` [Compound 454], the pIC50 is at least 7.00.

With `O=C(Nc1cc(N2CCC3(CC3)C2)c2occc2c1)c1ccc(S(=O)(=O)NCCO)cc1N1CCC2(CC1)CC2` [Compound 150], the pIC50 was at least 7.00.

For `C[C@H](CO)S(=O)(=O)Nc1ccc(NC(=O)c2cc3ccoc3c(N3CCC(F)(F)CC3)n2)c(N2CCC3(CC2)CC3)c1` [Compound 238], the pIC50 is at least 7.00.
